These results are taken from ChEMBL document CHEMBL1201862, “PubChem BioAssay data set” (2004).

Calls of active or inactive are those of the source.

One series addresses Cytochrome P450 2D6 (Homo sapiens, UniProt P10635).
For series [1], the target named is Voltage-dependent T-type calcium channel subunit alpha-1H (Homo sapiens, UniProt O95180). The class given is functional.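 Further: channel activity triggered by adding a high calcium stimulation buffer.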
The target of series [2] is T1, Microphthalmia-associated transcription factor (Homo sapiens, UniProt O75030).
T1 sequence (O75030 whole entry): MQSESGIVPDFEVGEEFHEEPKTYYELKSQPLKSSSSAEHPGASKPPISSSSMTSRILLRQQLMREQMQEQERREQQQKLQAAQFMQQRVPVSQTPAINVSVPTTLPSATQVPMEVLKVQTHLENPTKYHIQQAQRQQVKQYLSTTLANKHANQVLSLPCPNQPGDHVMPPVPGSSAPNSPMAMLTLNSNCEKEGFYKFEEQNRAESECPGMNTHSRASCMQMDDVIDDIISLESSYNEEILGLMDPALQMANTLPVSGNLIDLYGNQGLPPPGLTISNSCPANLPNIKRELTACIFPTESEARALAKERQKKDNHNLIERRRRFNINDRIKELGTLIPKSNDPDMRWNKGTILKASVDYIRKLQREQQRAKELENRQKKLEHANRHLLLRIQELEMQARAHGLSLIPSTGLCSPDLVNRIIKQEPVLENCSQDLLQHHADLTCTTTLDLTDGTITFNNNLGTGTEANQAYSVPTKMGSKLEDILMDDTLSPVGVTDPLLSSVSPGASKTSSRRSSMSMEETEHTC
Kind of series: reducers of TRPM1 reporter luminescence, concentration series – cell-based, SK-MEL-5, cherry-picked, set 3, MITF inhibitor project, dose response (AID 493073).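 Further: SK-MEL-5 melanoma cells with luciferase driven by the MITF target TRPM1 promoter.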 The format is functional.

A further series is described as follows: cells. The class given is functional.
Series [3] in a line: THP-1 cell cytotoxicity, dose response, cytotoxicity control for non-replicating M. tuberculosis project (AID 489025). The class given is functional.
The nature of series [4]: microbe, parasite or virus in culture. The class given is functional. The following applies: Mycobacterium tuberculosis.
Series [5] in a line: Vero E6 cell cytotoxicity, dose response, cytotoxicity control for non-replicating M. tuberculosis project, secondary assay (AID 492998). The format is functional, VeroE6. Conditions: Vero C1008.
The nature of series [6]: HepG2 cell cytotoxicity, dose response, cytotoxicity control for non-replicating M. tuberculosis project (AID 489018). Conditions: Mycobacterium tuberculosis. The class given is functional.
In series [7] the target is T2, Ubiquitin-conjugating enzyme E2 N (Homo sapiens, UniProt P61088).
T2 sequence (P61088 whole entry): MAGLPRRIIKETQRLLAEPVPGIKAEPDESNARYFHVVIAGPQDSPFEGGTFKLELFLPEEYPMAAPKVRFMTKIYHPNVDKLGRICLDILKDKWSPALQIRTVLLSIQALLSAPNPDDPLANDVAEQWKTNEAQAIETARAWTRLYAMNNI
The format is functional.

The target in series [8] is T2, Ubiquitin-conjugating enzyme E2 N. The format is functional. This is another data set of the same source.
In another series the target is T3, Bcl-2-related protein A1 (Mus musculus, UniProt Q07440).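 Further: confirmatory dose–response counterscreen on Bfl-1, used to check hits from a UBC13 polyubiquitin inhibitor campaign.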
T3 sequence (Q07440 whole entry): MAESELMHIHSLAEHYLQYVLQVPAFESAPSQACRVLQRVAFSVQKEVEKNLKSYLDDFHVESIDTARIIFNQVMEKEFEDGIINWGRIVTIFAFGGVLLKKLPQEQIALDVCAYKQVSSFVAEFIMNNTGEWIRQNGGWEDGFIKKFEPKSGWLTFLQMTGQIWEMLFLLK
The format is functional.

Series [9] has as its system HEK293. Briefly: cells. The following applies: Homo sapiens. The class given is functional, cell-based.
For series [10], the system named is HEK293. Briefly: inhibition of NOD1-driven NF-kB reporter – cell-based, luminescence, uHTS, primary screen (AID 1578). The format is functional. The following applies: Homo sapiens.
Series [11] in a line: loss of viability in HepG2 cells – cell-based, CellTiter-Glo, cherry-picked, cytotoxicity control for Shn3 inhibitor project, dose response (AID 624134). The format is functional.
The test system of series [12] is HEK293. Briefly: cells. The format is functional, cell-based. The following applies: Homo sapiens. This is another data set of the same source.
Series [13] is described as follows: non-specific 3'UTR reporter inhibition in Clone20-Shn3RL – cell-based, Renilla luciferase, cherry-picked, counter-screen for Shn3 inhibitor project, dose response (AID 624133). The class given is functional.
A short description of series [14]: reduction of Shn3 3'UTR-driven luciferase in osteoblasts – cell-based, Clone20 osteoblasts, firefly luciferase, cherry-picked, dose response (AID 624132).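 Further: firefly luciferase luminescence from reporter carrying the Shn3 3'UTR in osteoblasts.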 The class given is functional.
The subject of series [15] is HEK293. Briefly: NOD2 signaling inhibitors in MDP-stimulated cells, cell-based, uHTS, luminescence (AID 2001). The format is functional. Conditions: Homo sapiens.
In the next series the test system is HeLa. Briefly: ATP-based viability loss in HeLa cells – cell-based, CellTiter-Glo luminescence, cherry-pick samples, cytotoxicity control for MITF activator project, dose response (AID 540259). The format is functional. Conditions: Homo sapiens. (In ATP-based viability assays light output follows the ATP content of the culture.)
A further series has as its system Vero. Briefly: cells. The class given is functional, cell-based. Conditions: Chlorocebus sabaeus.
Series [16] has as its target Glucose-6-phosphate 1-dehydrogenase (Homo sapiens, UniProt P11413). Briefly: inhibition of Homo sapiens G6PD, dose series – biochemical, fluorescence, selectivity assay for P. falciparum G6PD inhibitor project, dose response (AID 504792). The class given is functional.
Series [17] is described as follows: viability loss in HeLa cells – cytotoxicity control for MgcRacGAP inhibitor project, dose response (AID 624300). The format is functional.
The target in a further series is Genome polyprotein (dengue virus type 2, UniProt P29990). Briefly: flavivirus cap methylation enzyme inhibition – biochemical, confirmation dose response, primary screen (AID 588689). The format is functional.
In series [18] the target is T4, Rac GTPase-activating protein 1 (Homo sapiens, UniProt Q9H0H5).
T4 sequence (Q9H0H5 whole entry): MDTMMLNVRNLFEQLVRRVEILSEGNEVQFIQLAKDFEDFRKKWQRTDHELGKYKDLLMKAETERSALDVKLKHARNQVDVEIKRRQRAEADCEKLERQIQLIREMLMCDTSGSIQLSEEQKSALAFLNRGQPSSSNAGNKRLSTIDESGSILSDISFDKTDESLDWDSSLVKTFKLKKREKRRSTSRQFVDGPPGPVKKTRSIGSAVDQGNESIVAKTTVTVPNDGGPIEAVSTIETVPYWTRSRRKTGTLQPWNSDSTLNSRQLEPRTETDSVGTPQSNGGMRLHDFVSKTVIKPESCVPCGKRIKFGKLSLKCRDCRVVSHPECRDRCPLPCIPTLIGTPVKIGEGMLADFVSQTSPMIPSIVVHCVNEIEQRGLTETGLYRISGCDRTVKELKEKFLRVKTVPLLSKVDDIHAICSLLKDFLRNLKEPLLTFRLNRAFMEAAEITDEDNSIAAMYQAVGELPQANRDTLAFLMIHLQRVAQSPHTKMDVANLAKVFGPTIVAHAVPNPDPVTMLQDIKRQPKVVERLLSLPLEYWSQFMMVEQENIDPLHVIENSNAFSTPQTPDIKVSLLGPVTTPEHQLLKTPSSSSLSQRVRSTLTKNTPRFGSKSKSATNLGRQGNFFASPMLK
Kind of series: blockers of MgcRacGAP-driven Rac1 GTP hydrolysis – biochemical, ADP Hunter fluorescence, primary and confirmatory, confirmation (AID 624330). The format is functional.

Series [19] concerns the target DNA (cytosine-5)-methyltransferase 1 (Homo sapiens, UniProt P26358). Kind of series: inhibition of DNA methylation by DNMT1 – biochemical, fluorescent molecular beacon, confirmation (AID 602386). The format is functional.
Series [20] addresses T5, Histone-lysine N-methyltransferase NSD2 (Homo sapiens, UniProt O96028).
T5 sequence (O96028 whole entry): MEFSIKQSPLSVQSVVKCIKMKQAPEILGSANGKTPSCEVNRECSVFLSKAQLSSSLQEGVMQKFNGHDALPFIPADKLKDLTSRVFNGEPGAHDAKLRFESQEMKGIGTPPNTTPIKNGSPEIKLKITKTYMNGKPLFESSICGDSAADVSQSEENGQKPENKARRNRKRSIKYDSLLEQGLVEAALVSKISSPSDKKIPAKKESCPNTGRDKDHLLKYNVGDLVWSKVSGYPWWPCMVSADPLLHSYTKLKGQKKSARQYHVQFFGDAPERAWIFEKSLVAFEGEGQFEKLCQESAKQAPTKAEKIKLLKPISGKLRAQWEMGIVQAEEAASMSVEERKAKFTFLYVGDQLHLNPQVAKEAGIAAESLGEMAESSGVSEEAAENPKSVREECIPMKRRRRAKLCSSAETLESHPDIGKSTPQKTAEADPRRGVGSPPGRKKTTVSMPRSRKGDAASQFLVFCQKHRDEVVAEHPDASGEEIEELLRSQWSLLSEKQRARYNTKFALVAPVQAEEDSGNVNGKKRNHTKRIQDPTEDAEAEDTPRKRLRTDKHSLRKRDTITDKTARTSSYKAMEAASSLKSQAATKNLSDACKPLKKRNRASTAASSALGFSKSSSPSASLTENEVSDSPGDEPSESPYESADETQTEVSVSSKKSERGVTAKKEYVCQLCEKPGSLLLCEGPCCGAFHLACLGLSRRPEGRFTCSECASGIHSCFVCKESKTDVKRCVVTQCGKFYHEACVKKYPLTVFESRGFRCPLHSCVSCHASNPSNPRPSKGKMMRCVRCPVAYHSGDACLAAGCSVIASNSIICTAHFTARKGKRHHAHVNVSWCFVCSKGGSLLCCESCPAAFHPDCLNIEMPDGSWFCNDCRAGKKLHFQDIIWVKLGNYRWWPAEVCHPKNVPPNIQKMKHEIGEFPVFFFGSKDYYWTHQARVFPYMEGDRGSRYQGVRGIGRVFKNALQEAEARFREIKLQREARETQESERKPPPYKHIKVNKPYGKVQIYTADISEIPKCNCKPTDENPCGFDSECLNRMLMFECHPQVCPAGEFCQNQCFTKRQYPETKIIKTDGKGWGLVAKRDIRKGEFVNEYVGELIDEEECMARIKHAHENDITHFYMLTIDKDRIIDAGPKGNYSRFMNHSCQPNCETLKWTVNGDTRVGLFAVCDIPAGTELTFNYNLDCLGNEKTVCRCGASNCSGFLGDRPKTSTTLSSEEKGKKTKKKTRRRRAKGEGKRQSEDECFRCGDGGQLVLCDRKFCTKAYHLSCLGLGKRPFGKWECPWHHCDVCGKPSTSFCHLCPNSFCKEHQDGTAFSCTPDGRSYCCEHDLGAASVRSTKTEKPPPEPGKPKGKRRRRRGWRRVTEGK
The format is biochemical.

Chain of Cytochrome P450 2D6 (P10635 whole entry): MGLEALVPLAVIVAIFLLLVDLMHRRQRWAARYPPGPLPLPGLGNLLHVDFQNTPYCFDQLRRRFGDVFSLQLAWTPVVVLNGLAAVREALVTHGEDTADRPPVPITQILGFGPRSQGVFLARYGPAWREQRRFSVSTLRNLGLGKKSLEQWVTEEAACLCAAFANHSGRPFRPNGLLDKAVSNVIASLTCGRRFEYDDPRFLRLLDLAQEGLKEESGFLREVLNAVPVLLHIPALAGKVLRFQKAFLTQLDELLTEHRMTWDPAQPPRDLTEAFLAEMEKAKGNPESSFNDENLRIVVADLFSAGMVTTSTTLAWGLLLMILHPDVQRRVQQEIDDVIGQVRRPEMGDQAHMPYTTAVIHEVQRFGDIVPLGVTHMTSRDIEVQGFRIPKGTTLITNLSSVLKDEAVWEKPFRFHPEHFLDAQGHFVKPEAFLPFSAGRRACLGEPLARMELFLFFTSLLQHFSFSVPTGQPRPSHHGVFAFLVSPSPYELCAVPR
Chain of Voltage-dependent T-type calcium channel subunit alpha-1H (O95180 whole entry): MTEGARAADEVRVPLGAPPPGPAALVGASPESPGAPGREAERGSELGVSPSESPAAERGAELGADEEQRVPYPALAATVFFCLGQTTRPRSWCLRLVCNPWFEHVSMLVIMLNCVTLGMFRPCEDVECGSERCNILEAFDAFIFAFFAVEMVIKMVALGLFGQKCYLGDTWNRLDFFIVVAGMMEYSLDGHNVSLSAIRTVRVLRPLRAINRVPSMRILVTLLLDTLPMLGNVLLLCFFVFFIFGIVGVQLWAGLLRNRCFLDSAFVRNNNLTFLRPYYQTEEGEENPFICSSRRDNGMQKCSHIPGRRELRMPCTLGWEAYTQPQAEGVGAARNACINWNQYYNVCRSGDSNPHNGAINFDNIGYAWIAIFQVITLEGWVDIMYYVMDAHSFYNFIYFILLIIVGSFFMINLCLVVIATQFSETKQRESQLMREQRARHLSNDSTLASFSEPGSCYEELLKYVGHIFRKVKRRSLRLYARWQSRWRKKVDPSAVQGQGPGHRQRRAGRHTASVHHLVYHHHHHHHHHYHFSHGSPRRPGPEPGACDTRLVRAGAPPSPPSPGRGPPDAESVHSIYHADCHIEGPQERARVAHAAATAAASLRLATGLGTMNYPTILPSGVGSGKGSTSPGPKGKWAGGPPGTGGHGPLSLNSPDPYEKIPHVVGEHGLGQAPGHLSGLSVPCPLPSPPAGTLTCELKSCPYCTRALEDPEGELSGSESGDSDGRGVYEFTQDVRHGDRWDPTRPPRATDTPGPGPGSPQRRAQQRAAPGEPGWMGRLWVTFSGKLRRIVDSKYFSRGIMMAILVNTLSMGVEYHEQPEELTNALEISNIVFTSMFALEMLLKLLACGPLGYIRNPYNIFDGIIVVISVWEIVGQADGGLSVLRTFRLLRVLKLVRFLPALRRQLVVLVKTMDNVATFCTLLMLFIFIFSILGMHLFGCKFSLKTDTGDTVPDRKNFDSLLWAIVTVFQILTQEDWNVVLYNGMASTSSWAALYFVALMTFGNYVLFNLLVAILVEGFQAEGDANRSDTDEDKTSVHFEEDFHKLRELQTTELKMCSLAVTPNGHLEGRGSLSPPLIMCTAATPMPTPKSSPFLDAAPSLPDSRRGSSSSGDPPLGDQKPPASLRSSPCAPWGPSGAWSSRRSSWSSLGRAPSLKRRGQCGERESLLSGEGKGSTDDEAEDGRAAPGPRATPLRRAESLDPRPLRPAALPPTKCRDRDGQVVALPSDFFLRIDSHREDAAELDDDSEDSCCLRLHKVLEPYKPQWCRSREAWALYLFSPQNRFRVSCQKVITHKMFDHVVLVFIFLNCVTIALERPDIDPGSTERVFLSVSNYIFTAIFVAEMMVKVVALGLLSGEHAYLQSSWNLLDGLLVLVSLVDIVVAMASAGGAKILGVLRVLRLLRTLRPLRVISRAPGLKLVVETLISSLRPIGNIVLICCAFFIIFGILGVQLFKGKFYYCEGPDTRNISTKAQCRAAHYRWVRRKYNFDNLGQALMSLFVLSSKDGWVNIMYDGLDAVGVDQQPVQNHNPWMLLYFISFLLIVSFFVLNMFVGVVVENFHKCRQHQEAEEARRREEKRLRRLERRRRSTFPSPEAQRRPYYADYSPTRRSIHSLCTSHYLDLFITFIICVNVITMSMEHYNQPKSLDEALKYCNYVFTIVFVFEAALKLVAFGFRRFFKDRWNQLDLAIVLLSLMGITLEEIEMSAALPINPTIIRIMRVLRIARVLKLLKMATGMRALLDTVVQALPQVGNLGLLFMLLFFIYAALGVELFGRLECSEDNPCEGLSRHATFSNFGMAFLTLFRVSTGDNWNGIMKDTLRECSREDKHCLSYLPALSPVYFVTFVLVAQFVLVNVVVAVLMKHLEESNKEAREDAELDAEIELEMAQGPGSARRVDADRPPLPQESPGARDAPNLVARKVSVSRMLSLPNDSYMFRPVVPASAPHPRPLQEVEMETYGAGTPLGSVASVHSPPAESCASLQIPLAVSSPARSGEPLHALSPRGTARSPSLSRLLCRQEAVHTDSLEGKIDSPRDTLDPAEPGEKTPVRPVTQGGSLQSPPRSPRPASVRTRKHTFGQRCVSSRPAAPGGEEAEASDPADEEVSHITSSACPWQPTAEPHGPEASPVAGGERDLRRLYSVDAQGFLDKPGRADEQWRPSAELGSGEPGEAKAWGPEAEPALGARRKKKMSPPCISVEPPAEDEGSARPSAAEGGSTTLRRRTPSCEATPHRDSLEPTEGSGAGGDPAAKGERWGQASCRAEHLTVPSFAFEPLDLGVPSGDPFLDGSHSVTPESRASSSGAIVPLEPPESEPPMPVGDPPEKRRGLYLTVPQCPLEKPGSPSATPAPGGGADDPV
Chain of Glucose-6-phosphate 1-dehydrogenase (P11413 whole entry): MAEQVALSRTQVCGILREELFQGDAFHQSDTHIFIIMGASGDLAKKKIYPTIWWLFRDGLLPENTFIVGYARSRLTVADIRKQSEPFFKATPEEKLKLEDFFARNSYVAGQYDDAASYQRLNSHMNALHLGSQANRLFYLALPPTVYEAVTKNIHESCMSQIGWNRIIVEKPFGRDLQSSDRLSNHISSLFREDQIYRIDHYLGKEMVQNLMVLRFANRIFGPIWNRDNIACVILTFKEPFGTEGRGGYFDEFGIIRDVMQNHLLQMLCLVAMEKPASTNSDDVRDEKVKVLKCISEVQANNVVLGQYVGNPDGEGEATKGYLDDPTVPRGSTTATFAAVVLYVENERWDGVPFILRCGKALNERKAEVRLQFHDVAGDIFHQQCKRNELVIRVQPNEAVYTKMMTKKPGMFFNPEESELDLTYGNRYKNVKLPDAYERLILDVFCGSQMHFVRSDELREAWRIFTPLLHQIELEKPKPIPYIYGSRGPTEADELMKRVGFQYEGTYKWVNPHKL
Chain of DNA (cytosine-5)-methyltransferase 1 (P26358 whole entry): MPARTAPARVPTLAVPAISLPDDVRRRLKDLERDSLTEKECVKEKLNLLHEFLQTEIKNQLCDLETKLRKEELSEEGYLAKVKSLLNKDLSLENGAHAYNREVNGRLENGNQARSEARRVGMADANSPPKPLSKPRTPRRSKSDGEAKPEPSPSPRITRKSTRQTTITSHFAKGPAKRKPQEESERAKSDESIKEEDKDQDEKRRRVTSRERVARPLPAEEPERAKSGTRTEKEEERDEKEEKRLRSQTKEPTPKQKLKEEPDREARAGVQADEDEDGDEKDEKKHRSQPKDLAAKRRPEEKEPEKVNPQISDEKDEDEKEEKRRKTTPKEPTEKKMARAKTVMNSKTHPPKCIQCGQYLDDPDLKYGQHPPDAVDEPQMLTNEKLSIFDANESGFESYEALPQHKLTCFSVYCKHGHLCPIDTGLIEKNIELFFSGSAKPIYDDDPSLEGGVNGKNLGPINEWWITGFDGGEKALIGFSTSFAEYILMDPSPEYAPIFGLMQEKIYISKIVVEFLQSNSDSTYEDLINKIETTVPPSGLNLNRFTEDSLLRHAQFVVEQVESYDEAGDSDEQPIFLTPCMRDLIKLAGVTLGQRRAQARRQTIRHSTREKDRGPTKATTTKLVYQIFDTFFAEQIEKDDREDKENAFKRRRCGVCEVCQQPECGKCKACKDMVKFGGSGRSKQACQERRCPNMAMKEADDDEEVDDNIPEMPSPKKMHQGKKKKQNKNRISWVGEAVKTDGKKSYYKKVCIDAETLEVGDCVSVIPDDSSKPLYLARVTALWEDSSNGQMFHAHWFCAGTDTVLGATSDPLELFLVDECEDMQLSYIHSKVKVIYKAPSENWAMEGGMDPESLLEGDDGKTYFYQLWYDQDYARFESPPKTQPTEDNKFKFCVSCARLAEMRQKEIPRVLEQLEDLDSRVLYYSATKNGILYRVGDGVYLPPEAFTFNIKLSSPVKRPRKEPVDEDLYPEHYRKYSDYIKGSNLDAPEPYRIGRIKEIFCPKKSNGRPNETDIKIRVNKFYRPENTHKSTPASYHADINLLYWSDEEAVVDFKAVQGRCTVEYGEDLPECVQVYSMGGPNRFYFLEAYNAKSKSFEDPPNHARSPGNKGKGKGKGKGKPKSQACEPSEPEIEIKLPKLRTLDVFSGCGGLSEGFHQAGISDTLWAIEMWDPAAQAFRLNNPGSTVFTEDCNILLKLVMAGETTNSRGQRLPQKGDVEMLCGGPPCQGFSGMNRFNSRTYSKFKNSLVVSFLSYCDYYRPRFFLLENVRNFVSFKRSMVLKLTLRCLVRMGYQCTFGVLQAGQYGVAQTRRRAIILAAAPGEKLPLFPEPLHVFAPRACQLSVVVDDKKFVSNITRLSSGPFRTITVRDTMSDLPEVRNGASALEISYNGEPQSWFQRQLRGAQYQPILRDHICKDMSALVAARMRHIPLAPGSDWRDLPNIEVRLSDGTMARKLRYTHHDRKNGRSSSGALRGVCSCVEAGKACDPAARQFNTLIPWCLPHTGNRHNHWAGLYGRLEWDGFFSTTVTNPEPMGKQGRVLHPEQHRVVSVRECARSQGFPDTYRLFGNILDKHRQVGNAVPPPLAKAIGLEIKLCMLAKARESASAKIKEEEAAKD

Turning to `OCCN(CO)CO`, at Cytochrome P450 2D6, the AC50 result was “inconclusive”.

With `COc1cccc(-c2nc(CS(=O)(=O)CC(=O)N3CCc4ccccc4C3)c(C)o2)c1`, the EC50 in [1] was 10.8 µM (active).

`N#C/C(=C(/O)CCl)c1nc2ccccc2[nH]1`: the AC50 in [2] was 4.6 µM (active).

`NS(=O)(=O)c1cc2c(cc1Cl)N=C(CCC(=O)O)N=S2(=O)O`: at Cytochrome P450 2D6, the AC50 entry is “inconclusive”.

For the compound `CC(C)(C)OC(=O)NNc1c2ccccc2nc2ccccc12`, in the series “cells”, the IC50 is 22.2 µM (active). Also, the CC50 is > 40 µM (active) in series [3], > 40 µM (active) in series [4], > 20 µM (active) in [5] and 15.1 µM (active) in series [6].

On to `O=C(NCCN1CCN(c2ccccc2)CC1)c1ccc2c(c1)[nH]c(=S)n1c3ccccc3nc21`, for which the IC50 is > 20 µM (inactive) in series [7], 0.829 µM (active) in [8] and > 20 µM (inactive) at Bcl-2-related protein A1.

Turning to `Cn1cc(S(=O)(=O)N2CCc3ccccc32)cc1C(=O)NC(C)(C)C`, the IC50 was 10.6 µM (active) in the series with HEK293 [9], > 20 µM (inactive) in the series on HEK293 [12] and 12.3 µM (inactive) in the series on HEK293 [15]. Besides, in the series with HEK293 [10], the EC50 is 3.38 µM (active). The AC50 in series [11] is 3.56 µM (active); in series [13], 1.37 µM (active); in series [14], 1.25 µM (active).

Turning to `COC(=O)C1CCCCN1C(=O)c1ccc2oc(Cc3ccccc3)nc2c1` (stereo not drawn), the AC50 with HeLa was 181 µM (active).

On to `NNC(=O)c1ccc(CN2C(=O)c3cccc4cccc2c34)cc1`, for which the IC50 in [7] was 3.55 µM (active); in [8], 8.94 µM (active); on Bcl-2-related protein A1, > 20 µM (inactive).

On to `CCCC(=O)N1CCN(c2ccc([N+](=O)[O-])c(NC(C)c3ccccc3)c2)CC1` (stereo not drawn), for which the EC50 in [1] was 5.51 µM (active).

With `Cc1nn2c(-c3ccccc3)ccnc2c1-c1ccccc1`, the AC50 with HeLa was 34.7 µM (active).

For `COc1ccc2c(c1OC)C(=O)N(c1ccc(C)cc1)C2`, the AC50 in the series with HeLa is 82.3 µM (active).

For `Cc1ccc(C(C)C)cc1OCC(=O)Nc1nnc(C2CC2)s1`, the IC50 in the series on Vero is > 25 µM (active).

`COC1=C(Br)C(=O)c2nc(C)ccc2C1=O`: the IC50 in series [16] is 53.7 µM (inactive); at Genome polyprotein it was 3.77 µM (active); in series [18] it was 68.1 µM (active); in series [19] it was 8.73 µM (active). Moreover, the CC50 in series [17] was 100 µM (active). For the same compound, the AC50 in series [20] was 1.71 µM (active).

In the case of `CCn1nc(C)c(NC(=O)/C=C/c2cnn(C)c2C)c1C`, at Cytochrome P450 2D6, the AC50 entry was “inconclusive”.

For `Cc1ccsc1/C=N\NC(=O)CC(=O)NCc1ccccc1`, in series [16], the IC50 was > 80 µM (inactive).

For `COc1ccc(/C=N/NC(=O)Cc2csc(Nc3cccc(C(F)(F)F)c3)n2)c(OC)c1`, the values for the IC50 (in [7]; in series [8]; at Bcl-2-related protein A1) were 10.1 µM (active), 14 µM (active) and > 20 µM (inactive), respectively.

What is called AC50 is the concentration giving half of the maximal activity seen. By EC50 is commonly meant the concentration needed to bring the measured effect to its halfway point. As usually defined, the IC50 is the concentration needed to halve the response being measured.
